Here are results for six sequences from patent publication EP1328811B1, “HCV MOSAIC ANTIGEN COMPOSITION” (MedMira Inc., priority 2000, dated 2005).

The subject of this test is anti-HCV antibodies. As to the kind of experiment: Immunofiltration dotting assay of individual peptide-carrier conjugates (epitope mapping, Example 4). Type of test: binding, human. The conditions noted are these: for reactivity with HCV positive samples / reactivity with positive HCV samples: HCV positive specimens n=10; for reactivity with positive HCV samples: peptide conjugates, independently of the carrier used (BSA, HSA, KLH), peptide-carrier mass ratio 0.5; for reactivity with negative HCV samples: peptide-carrier conjugates, HCV negative specimens n=10. The text has this:
Several versions of antibody capture assay formats are available which differ mainly according to the type of solid supports employed and the detection technology used to determine the presence of immunological complexes formed by antigen-antibody recognition and binding. A commercially available immunofiltration dotting assay procedure (MedMira Inc., Halifax, N.S.) was used to test for immunoreactivity of the peptide-carrier conjugates based on colloidal gold detection using a nitrocellulose membrane as a solid support and is described below.
The HCV positive/negative specimens used to evaluate the mosaic antigen composition were provided by Dr. Spencer Lee (Director of Virology/Immunology, Microbiology Division, Department of Pathology and Laboratory Medicine) of the Queen Elizabeth II Health Sciences Center (Halifax, Nova Scotia). All specimens were tested with the Abbott's HCV test using the Axsym system platform. The Riba-II (Chiron) immunoblot assay was used as a confirmation test.
The maleimide-activated carrier molecules (KLH, BSA and HSA) were purchased from Pierce (Rockford, IL) and conjugated with cysteine containing peptides using a peptide-carrier mass ratio of 0.5 except mentioned otherwise.
Typically, the conjugates were passively adsorbed at a concentration of 1 mg/ml (bicarbonate buffer, 50 mM, pH 9.6) by applying one microliter of peptide-carrier conjugate on the nitrocellulose membrane. The antigen dotted membrane was air-dried. Before the test, the membrane was primed with 3 drops of washing buffer (Tris/phosphate/sodium chloride, pH 9.6 containing 0.25% Tween®20). The tests were performed as follows.
One drop of specimen serum was added to the membrane and after complete absorption of the sample, the membrane was washed with 4 drops of washing buffer. Four drops of protein A/colloidal gold solution (concentration corresponding to an optical density of 2 at 520 nm) was added to the membrane and the membrane was washed with 3 more drops of washing solution. The results were recorded visually within 5 minutes after completion of the test.
The identification of major linear epitopes was carried out using selected peptides corresponding to various regions of the HCV polyprotein and panels of well-characterized HCV positive and negative human sera. Additionally, a comparison of different carrier components was made based on a sensitivity/specificity assessment of various peptide-carrier conjugates.
Peptides were individually conjugated to three different carriers (BSA, HSA and KLH) and adsorbed passively on a nitrocellulose membrane support. Tests were performed by immunofiltration dotting assay format using a,commercially available flow-through assay platform (MedMira Inc., Halifax, N.S.).

Take “GPRLGVRATRKTSERSQP [MDL-4, HCV core region antigenic peptide]”: the “reactivity with HCV positive samples” value is “marginally reactive or unreactive” (peptide conjugated with BSA), “marginally reactive or unreactive” (peptide conjugated with HSA) and “reactive with most HCV positive samples” (peptide conjugated with KLH).
With “KTKRNTNRRPQDVKF [MDL-2, HCV core region antigenic peptide]”, the “reactivity with positive HCV samples” value was “more consistent reactivity” and the “reactivity with negative HCV samples” value is given as “No significant reactivity”.
As for “ATRKTSERSQPRGRRQPI [MDL-5, HCV core region antigenic peptide]”, the “reactivity with HCV positive samples” value by setting is: (peptide conjugated with BSA) “reactive with most HCV positive samples”; (peptide conjugated with HSA) “unreactive”; (peptide conjugated with KLH) “reactive with most HCV positive samples”.
In the case of PKARQPEGRAWAQPG [MDL-6], the “reactivity with HCV positive samples” value runs as follows: (peptide conjugated with BSA) “reactive with most HCV positive samples”; (peptide conjugated with HSA) “reactive with most HCV positive samples”; (peptide conjugated with KLH) “poorly reactive”.
On to “MSTNPKPQRKTKRNTNRR [MDL-1, HCV core region antigenic peptide]”, for which the “reactivity with positive HCV samples” value was “more consistent reactivity” and the “reactivity with negative HCV samples” value is recorded as “No significant reactivity”.
In the same order, the values of “GQIVGGVYLLPRRGP [MDL-3, HCV core region antigenic peptide]” are “more consistent reactivity” and “No significant reactivity”.
